# From ChEMBL document CHEMBL1156591, “Selective inhibitory effects of hybrid liposomes on the growth of HIV type 1-infected cells in vitro” (Bioorg Med Chem Lett, 2008)
# Key:
# [1] = test system: Human immunodeficiency virus 1; experiment: Growth inhibition of HIV1 3B infected human MOLT4 cells after 5 days by MTT assay; assay type: functional, organism-based; settings: Human immunodeficiency virus 1, 3B, MOLT-4, 120 h
# [2] = test system: MOLT-4; experiment: Growth inhibition of human MOLT4 cells after 5 days by MTT assay; assay type: cell-based; settings: MOLT-4, 120 h
Compound,IC50 [1] [µM],IC50 [2] [µM]
CCCCCCCCCCCCOCCOCCOCCOCCO [LAURETH 4],37,118
CCCCCCCCCCCCCC(=O)OC[C@H](COP(=O)([O-])OCC[N+](C)(C)C)OC(=O)CCCCCCCCCCCCC [DIMYRISTOYLPHOSPHATIDYLCHOLINE],50,293
CCCCCCCCCCCCOCCOCCOCCOCCOCCOCCOCCOCCOCCOCCO,26,41
CCCCCCCCCCCCOCCOCCOCCOCCOCCOCCOCCOCCOCCOCCOCCOCCOCCOCCOCCOCCOCCOCCOCCOCCOCCO,34,121
CCCCCCCCCCCCOCCOCCOCCOCCOCCOCCOCCOCCOCCOCCOCCOCCOCCOCCOCCOCCOCCOCCOCCOCCOCCOCCOCCO,47,190
CCCCCCCCCCCCOCCOCCOCCOCCOCCOCCOCCOCCO,29,59
CCCCCCCCCCCCOCCOCCOCCOCCOCCOCCOCCOCCOCCOCCOCCOCCOCCOCCOCCOCCOCCOCCOCCOCCOCCOCCOCCOCCOCCO,40,221
